According to patent US12421210B2, “Fused bicyclic heterocycles as therapeutic agents” (NEW YORK UNIVERSITY, priority 2018, dated 2025):

Molecular target: human NAMPT enzyme (His-hNAMPT) (Homo sapiens (Human), UniProt P43490)
Assay: NAMPT enzymatic inhibition assay (fluorescence, NADH product)
Assay type: biochemical
Conditions: [BPS]; read-out: NAMPT IC50 (μM) [BPS]
Experimental: The compounds were then diluted 20 fold in an intermediate dilution to 5% DMSO and water. Finally 10 μL of each compound was added to the assay plate, in duplicate, with highest concentration at 30 μM and the lowest at 0.001 μM in a final volume of 50 μL and 1% DMSO concentration. Each assay also tested, in parallel, two reference compounds, FK866 and GMX1778, with highest concentration at 10 μM and lowest at 0.0003 μM. 200 ng of human NAMPT enzyme (His-hNAMPT obtained from E. coli expression system) diluted in […] (tris-buffered saline-Polysorbate 20) 1× was added to each well in a volume of 10 μL and the compounds were incubated with the enzyme at room temperature for 20 minutes. After the incubation, 30 μL of master mixture were added to each well. The master mixture contained: 50 mM Tris-HCl, pH 8.0, 12.5 mM MgCl2, 20 μM nicotinamide, 40 μM phosphoribosyl pyrophosphate (PRPP), 20 μM adenosine triphosphate (ATP), 30 μg/mL of alcohol dehydrogenase, 10 μg/mL of NMNAT, 1.5% alcohol, 1 mM dithiothreitol (DTT), 0.02% bovine serum albumin (BSA), 0.01% Tween 20. The reaction was performed at 30° C. for 60 minutes. Fluorescence intensity was measured at an excitation of 340 nm and an emission of 460 nm using a Tecan Infinite M1000 microplate reader. The fluorescence values indicated increase of NADH product.
Enzyme activity assay was performed in duplicate at each concentration. The fluorescence data was analyzed and compared. In the absence of the compound, the intensity (Ce) in each data set was defined as 100% activity. In the absence of enzyme, the intensity (C0) in each data set was defined as 0% activity. The percent activity in the presence of each compound was calculated according to the following equation: % activity=(C−C0)/(Ce−C0), where C is the fluorescence in the presence of the compound.
The % activity vs. compound concentrations were then plotted using non-linear regression analysis of Sigmoidal dose-response curve generated with the equation Y=B+(T−B)/1+10^((Log EC50-X)×Hill Slope), where Y is percent activity, B is minimum percent activity, T is maximum percent activity, X is logarithm of compound and Hill Slope=slope factor or Hill coefficient.

human NAMPT enzyme (His-hNAMPT), sequence (P43490 whole entry): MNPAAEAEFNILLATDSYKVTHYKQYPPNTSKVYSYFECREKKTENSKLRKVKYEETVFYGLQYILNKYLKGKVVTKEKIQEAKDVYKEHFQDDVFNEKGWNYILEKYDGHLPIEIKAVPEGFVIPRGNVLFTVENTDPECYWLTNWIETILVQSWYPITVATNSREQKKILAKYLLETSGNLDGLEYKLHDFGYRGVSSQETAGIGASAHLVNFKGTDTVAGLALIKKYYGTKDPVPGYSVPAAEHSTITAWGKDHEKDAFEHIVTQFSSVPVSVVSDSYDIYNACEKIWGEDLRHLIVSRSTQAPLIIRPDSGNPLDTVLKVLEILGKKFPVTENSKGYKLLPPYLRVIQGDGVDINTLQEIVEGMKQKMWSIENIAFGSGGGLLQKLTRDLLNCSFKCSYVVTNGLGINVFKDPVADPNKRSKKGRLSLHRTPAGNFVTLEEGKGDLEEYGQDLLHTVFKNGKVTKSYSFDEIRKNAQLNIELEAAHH

SMILES	IC50
Nc1ccc(/C=C/C(=O)NCC[C@@H]2[C@H]3CN(C(=O)Nc4ccccc4)C[C@@H]23)cn1 [Example 31, (1R,5S,6s)-6-(2-((E)-3-(6-aminopyridin-3-yl)acrylamido)ethyl)-N-phenyl-3-azabicyclo[3.1.0]hexane-3-carboxamide]	0.01 to 0.49 µM
Nc1ccc(/C=C/C(=O)NCC[C@@H]2[C@H]3CN(C(=O)NC4CCOCC4)C[C@@H]23)cn1 [Example 32, (1R,5S,6s)-6-(2-((E)-3-(6-aminopyridin-3-yl)acrylamido)ethyl)-N-(tetrahydro-2H-pyran-4-yl)-3-azabicyclo[3.1.0]hexane-3-carboxamide]	0.01 to 0.49 µM
CCN(CC)C(=O)N1C[C@@H]2[C@@H](CCNC(=O)/C=C/c3ccc(N)nc3)[C@@H]2C1 [Example 33, (1R,5S,6s)-6-(2-((E)-3-(6-aminopyridin-3-yl)acrylamido)ethyl)-N,N-diethyl-3-azabicyclo[3.1.0]hexane-3-carboxamide]	0.01 to 0.49 µM
Nc1ccc(/C=C/C(=O)NCC[C@@H]2[C@H]3CN(C(=O)OC4CCCC4)C[C@@H]23)cn1 [Example 34, (1R,5S,6s)-cyclopentyl 6-(2-((E)-3-(6-aminopyridin-3-yl)acrylamido)ethyl)-3-azabicyclo[3.1.0]hexane-3-carboxylate]	0.01 to 0.49 µM
CC1(OC(=O)N2C[C@@H]3[C@@H](CCNC(=O)/C=C/c4ccncc4)[C@@H]3C2)COC1 [Example 35, (1R,5S,6s)-3-methyloxetan-3-yl 6-(2-((E)-3-(pyridin-4-yl)acrylamido)ethyl)-3-azabicyclo[3.1.0]hexane-3-carboxylate]	1 to 29 µM
CC1(OC(=O)N2C[C@@H]3[C@@H](CCNC(=O)c4cc5cnccc5[nH]4)[C@@H]3C2)COC1 [Example 36, (1R,5S,6s)-3-methyloxetan-3-yl 6-(2-(1H-pyrrolo[3,2-c]pyridine-2-carboxamido)ethyl)-3-azabicyclo[3.1.0]hexane-3-carboxylate]	0.01 to 0.49 µM
CC1(OC(=O)N2C[C@@H]3[C@@H](CCNC(=O)c4cc5cnccc5s4)[C@@H]3C2)COC1 [Example 37, (1R,5S,6s)-3-methyloxetan-3-yl 6-(2-(thieno[3,2-c]pyridine-2-carboxamido)ethyl)-3-azabicyclo[3.1.0]hexane-3-carboxylate]	0.01 to 0.49 µM
CC1(OC(=O)N2C[C@@H]3[C@@H](CCNC(=O)c4ccc5nccn5c4)[C@@H]3C2)COC1 [Example 38, (1R,5S,6s)-3-methyloxetan-3-yl 6-(2-(imidazo[1,2-a]pyridine-6-carboxamido)ethyl)-3-azabicyclo[3.1.0]hexane-3-carboxylate]	0.01 to 0.49 µM
Nc1ccc(/C=C/C(=O)NCC[C@@H]2[C@H]3CN(C(=O)N4CCCC4)C[C@@H]23)cn1 [Example 39, (E)-3-(6-aminopyridin-3-yl)-N-(2-((1R,5S,6s)-3-(pyrrolidine-1-carbonyl)-3-azabicyclo[3.1.0]hexan-6-yl)ethyl)acrylamide]	0.01 to 0.49 µM
Nc1ccc(/C=C/C(=O)NCC[C@@H]2[C@H]3CN(C(=O)Oc4ccccc4)C[C@@H]23)cn1 [Example 40, (1R,5S,6s)-phenyl 6-(2-((E)-3-(6-aminopyridin-3-yl)acrylamido)ethyl)-3-azabicyclo[3.1.0]hexane-3-carboxylate]	0.01 to 0.49 µM
Nc1ccc(/C=C/C(=O)NCC[C@@H]2[C@H]3CN(C(=O)OC4CCOCC4)C[C@@H]23)cn1 [Example 41, (1R,5S,6s)-tetrahydro-2H-pyran-4-yl 6-(2-((E)-3-(6-aminopyridin-3-yl)acrylamido)ethyl)-3-azabicyclo[3.1.0]hexane-3-carboxylate]	0.01 to 0.49 µM
CC1(OC(=O)N2C[C@@H]3[C@@H](CCNC(=O)N4Cc5ccc(F)cc5C4)[C@@H]3C2)COC1 [Example 42, (1R,5S,6s)-3-methyloxetan-3-yl 6-(2-(5-fluoroisoindoline-2-carboxamido)ethyl)-3-azabicyclo[3.1.0]hexane-3-carboxylate]	0.01 to 0.49 µM
CC1(OC(=O)N2C[C@@H]3[C@@H](CCNC(=O)c4cnc5nccn5c4)[C@@H]3C2)COC1 [Example 43, (1R,5S,6s)-3-methyloxetan-3-yl 6-(2-(imidazo[1,2-a]pyrimidine-6-carboxamido)ethyl)-3-azabicyclo[3.1.0]hexane-3-carboxylate]	0.01 to 0.49 µM
CC1(OC(=O)N2C[C@@H]3[C@@H](CCNC(=O)c4ccc5ncsc5c4)[C@@H]3C2)COC1 [Example 44, (1R,5S,6s)-3-methyloxetan-3-yl 6-(2-(benzo[d]thiazole-6-carboxamido)ethyl)-3-azabicyclo[3.1.0]hexane-3-carboxylate]	0.01 to 0.49 µM
Nc1ccc(/C=C/C(=O)NCC[C@@H]2[C@H]3CN(S(=O)(=O)c4ccccc4)C[C@@H]23)cn1 [Example 45, (E)-3-(6-aminopyrdiin-3-yl)-N-(2-((1R,5S,6s)-3-(phenylsulfonyl)-3-azabicyclo[3.1.0]hexan-6-yl)ethyl)acrylamide]	0.01 to 0.49 µM
Nc1ccc(/C=C/C(=O)NCC[C@@H]2[C@H]3CN(S(=O)(=O)c4ccc(F)cc4)C[C@@H]23)cn1 [Example 46, (E)-3-(6-aminopyridin-3-yl)-N-(2-((1R,5S,6s)-3-((4-fluorophenyl)sulfonyl)-3-azabicyclo[3.1.0]hexan-6-yl)ethyl)acrylamide]	0.01 to 0.49 µM
Nc1ccc(/C=C/C(=O)NCC[C@@H]2[C@H]3CN(S(=O)(=O)C4CCOCC4)C[C@@H]23)cn1 [Example 47, (E)-3-(6-aminopyridin-3-yl)-N-(2-((1R,5S,6s)-3-((tetrahydro-2H-pyran-4-yl)sulfonyl)-3-azabicyclo[3.1.0]hexan-6-yl)ethyl)acrylamide]	0.01 to 0.49 µM
Nc1ccc(/C=C/C(=O)NCC[C@@H]2[C@H]3CN(S(=O)(=O)C4CCCC4)C[C@@H]23)cn1 [Example 48, (E)-3-(6-aminopyridin-3-yl)-N-(-2 ((1R,5S,6s)-3-(cyclopentylsulfonyl)-3-azabicyclo[3.1.0]hexan-6-yl)ethyl)acrylamide]	0.01 to 0.49 µM
CC1(OC(=O)N2C[C@@H]3[C@@H](CCNC(=O)c4ccc5nc(N)sc5c4)[C@@H]3C2)COC1 [Example 49, (1R,5S,6s)-3-methyloxetan-3-yl 6-(2-(2-aminobenzo[d]thiazole-6-carboxamido)ethyl)-3-azabicyclo[3.1.0]hexane-3-carboxylate]	1 to 29 µM
CC1(OC(=O)N2C[C@@H]3[C@@H](CCNC(=O)c4cc(-c5cccnc5)on4)[C@@H]3C2)COC1 [Example 50, (1R,5S,6s)-3-methyloxetan-3-yl 6-(2-(5-(pyridin-3-yl)isoxazole-3-carboxamido)ethyl)-3-azabicyclo[3.1.0]hexane-3-carboxylate]	0.01 to 0.49 µM
Nc1ccc(/C=C/C(=O)NCC[C@@H]2[C@H]3CN(C(=O)OC4Cc5ccccc5C4)C[C@@H]23)cn1 [Example 51, (1R,5S,6s)-2,3-dihydro-1H-inden-2-yl 6-(2-((E)-3-(6-aminopyridin-3-yl)acrylamido)ethyl)-3-azabicyclo[3.1.0]hexane-3-carboxylate]	0.01 to 0.49 µM
CN1CCC(OC(=O)N2C[C@@H]3[C@@H](CCNC(=O)/C=C/c4ccc(N)nc4)[C@@H]3C2)CC1 [Example 52, (1R,5S,6s)-(1-methylpiperidin)-4-yl 6-(2-((E)-3-(6-aminopyridin-3-yl)acrylamido)ethyl)-3-azabicyclo[3.1.0]hexane-3-carboxylate]	0.01 to 0.49 µM
CC1(OC(=O)N2C[C@@H]3[C@@H](CCNC(=O)/C=C/c4cnc(N)nc4)[C@@H]3C2)COC1 [Example 54, (1R,5S,6s)-3-methyloxetan-3-yl 6-(2-((E)-3-(2-aminopyrimidin-5-yl)acrylamido)ethyl)-3-azabicyclo[3.1.0]hexane-3-carboxylate]	1 to 29 µM
CC1(OC(=O)N2C[C@@H]3[C@@H](CCNC(=O)c4cnc5[nH]ncc5c4)[C@@H]3C2)COC1 [Example 55, (1R,5S,6s)-3-methyloxetan-3-yl 6-(2-(1H-pyrazolo[3,4-b]pyridine-5-carboxamido)ethyl)-3-azabicyclo[3.1.0]hexane-3-carboxylate]	> 30 µM
CC(C)(C)NC(=O)N1C[C@@H]2[C@@H](CCNC(=O)c3cc4ccncc4o3)[C@@H]2C1 [Example 56, N-(2-((1R,5S,6s)-3-(tert-butylcarbamoyl)-3-azabicyclo[3.1.0]hexan-6-yl)ethyl)furo[2,3-c]pyridine-2-carboxamide]	0.01 to 0.49 µM
O=C(NCC[C@@H]1[C@H]2CN(C(=O)Nc3ccccc3)C[C@@H]12)c1cc2ccncc2o1 [Example 57, N-(2-((1R,5S,6s)-3-(phenylcarbamoyl)-3-azabicyclo[3.1.0]hexan-6-yl)ethyl)furo[2,3-c]pyridine-2-carboxamide]	0.01 to 0.49 µM
O=C(NCC[C@@H]1[C@H]2CN(C(=O)N3CCOCC3)C[C@@H]12)c1cc2ccncc2o1 [Example 58, N-(2-((1R,5S,6s)-3-(morpholine-4-carbonyl)-3-azabicyclo[3.1.0]hexan-6-yl)ethyl)furo[2,3-c]pyridine-2-carboxamide]	0.01 to 0.49 µM
